Molecular target: T1, human TRPA1 (Homo sapiens, UniProt O75762)
T1 construct: expressed in transfected cells; host or cells: CHO cells
Test: TRPA1 FLIPR Tetra calcium influx assay in CHO cells (block of cinnamaldehyde-induced calcium influx)
Assay type: cell-based
Settings: Table 2; CHO cells expressing TRPA1; agonist cinnamaldehyde 75 uM; 20 min compound incubation; Hill coefficient fixed to 1.5; read-out: hTRPA1 CHO Ca2+ AUC EVO (IC50)
Outline: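 CHO cells expressing TRPA1 were loaded with calcium dye in HBSS/20 mM HEPES, pH 7.4, 0.02% BSA, then given compound for 20 min at room temperature before ~EC80 cinnamaldehyde (75 µM human, 45 µM rat). Block of calcium influx was read on FLIPR Tetra; IC50 fitted with Hill coefficient fixed at 1.5.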

T1 sequence (O75762 whole entry): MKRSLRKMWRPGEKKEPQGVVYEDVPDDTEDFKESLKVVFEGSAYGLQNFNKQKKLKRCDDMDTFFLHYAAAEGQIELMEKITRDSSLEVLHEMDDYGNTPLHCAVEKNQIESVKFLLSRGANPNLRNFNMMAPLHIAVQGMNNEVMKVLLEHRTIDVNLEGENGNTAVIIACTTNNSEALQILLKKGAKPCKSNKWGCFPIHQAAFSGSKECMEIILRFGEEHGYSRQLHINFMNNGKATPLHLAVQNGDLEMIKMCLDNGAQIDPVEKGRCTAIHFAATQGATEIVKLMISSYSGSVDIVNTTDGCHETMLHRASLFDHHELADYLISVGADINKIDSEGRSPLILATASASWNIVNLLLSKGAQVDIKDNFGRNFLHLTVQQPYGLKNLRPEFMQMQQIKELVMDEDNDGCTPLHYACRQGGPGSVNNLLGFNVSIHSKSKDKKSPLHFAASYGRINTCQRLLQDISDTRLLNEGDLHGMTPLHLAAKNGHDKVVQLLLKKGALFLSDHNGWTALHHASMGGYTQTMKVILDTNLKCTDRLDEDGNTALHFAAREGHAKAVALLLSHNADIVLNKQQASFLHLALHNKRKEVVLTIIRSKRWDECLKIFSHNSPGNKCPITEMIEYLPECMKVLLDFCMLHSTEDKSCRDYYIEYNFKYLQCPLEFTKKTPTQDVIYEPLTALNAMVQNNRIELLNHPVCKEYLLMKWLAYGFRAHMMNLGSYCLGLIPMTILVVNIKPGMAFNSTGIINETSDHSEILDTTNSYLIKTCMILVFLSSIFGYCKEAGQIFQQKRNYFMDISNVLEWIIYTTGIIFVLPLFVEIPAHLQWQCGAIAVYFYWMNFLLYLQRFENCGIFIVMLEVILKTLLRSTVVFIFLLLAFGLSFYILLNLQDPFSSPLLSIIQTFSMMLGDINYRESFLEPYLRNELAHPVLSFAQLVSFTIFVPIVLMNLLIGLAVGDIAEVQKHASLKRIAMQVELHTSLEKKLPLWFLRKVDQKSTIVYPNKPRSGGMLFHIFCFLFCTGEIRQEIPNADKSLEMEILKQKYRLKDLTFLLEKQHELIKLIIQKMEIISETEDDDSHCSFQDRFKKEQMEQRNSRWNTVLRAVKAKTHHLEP

IC50 [nM]	Structure (SMILES)
46.2	O=C(NCc1cc(-c2cnc(C(F)(F)F)nc2)ncc1F)[C@@H]1[C@@H]2[C@H](CN1S(=O)(=O)c1ccc(F)cc1)C2(F)F [Example 71, (1S,2S,5R)-6,6-difluoro-N-((5-fluoro-2-(2-(trifluoromethyl)pyrimidin-5-yl)pyridin-4-yl)methyl)-3-((4-fluorophenyl)sulfonyl)-3-azabicyclo[3.1.0]hexane-2-carboxamide]
14.7	CC1(C)[C@@H]2[C@@H](C(=O)NCc3cc(-c4cnc(C(F)(F)F)nc4)ncc3F)N(S(=O)(=O)c3ccc(F)cc3)C[C@@H]21 [Example 72, (1S,4S,5R)-3-(4-fluorophenyl)sulfonyl-N-[[5-fluoro-2-[2-(trifluoromethyl)pyrimidin-5-yl]-4-pyridyl]methyl]-6,6-dimethyl-3-azabicyclo[3.1.0]hexane-4-carboxamide]
56.7	O=C(NCc1cc(-c2cnc(C(F)(F)F)nc2)nc(C2CC2)n1)[C@@H]1C[C@@H](F)CN1S(=O)(=O)c1ccc(F)cc1 [Example 73, (2S,4R)-N-[[2-cyclopropyl-6-[2-(trifluoromethyl)pyrimidin-5-yl]pyrimidin-4-yl]methyl]-4-fluoro-1-(4-fluorophenyl)sulfonyl-pyrrolidine-2-carboxamide]
65.1	O=C(NCc1cc(-c2cnc(C(F)(F)F)nc2)c(F)cc1F)[C@@H]1C[C@@H](F)CN1S(=O)(=O)c1ccc(F)cc1 [Example 74, (2S,4R)-N-[[2,4-difluoro-5-[2-(trifluoromethyl)pyrimidin-5-yl]phenyl]methyl]-4-fluoro-1-(4-fluorophenyl)sulfonyl-pyrrolidine-2-carboxamide]
66.6	C[C@@]1(F)C[C@@H](C(=O)NCc2cc(Cl)nc(-c3cnc(C(F)(F)F)nc3)c2)N(S(=O)(=O)c2ccc(F)cc2)C1 [Example 75, (2S,4R)-N-[[2-chloro-6-[2-(trifluoromethyl)pyrimidin-5-yl]-4-pyridyl]methyl]-4-fluoro-1-(4-fluorophenyl)sulfonyl-4-methyl-pyrrolidine-2-carboxamide]
39.3	O=C(NCc1cc(-c2cnc(C(F)(F)F)nc2)cc(F)c1F)[C@@H]1C[C@@H](F)CN1S(=O)(=O)c1ccc(F)cc1 [Example 76, (2S,4R)-N-[[2,3-difluoro-5-[2-(trifluoromethyl)pyrimidin-5-yl]phenyl]methyl]-4-fluoro-1-(4-fluorophenyl)sulfonyl-pyrrolidine-2-carboxamide]
73.3	O=C(NCc1ccc(F)c(-c2cnc(C(F)(F)F)s2)c1)[C@@H]1C[C@@H](F)CN1S(=O)(=O)c1ccc(F)cc1 [Example 77, (2S,4R)-4-fluoro-1-(4-fluorophenyl)sulfonyl-N-[[4-fluoro-3-[2-(trifluoromethyl)thiazol-5-yl]phenyl]methyl]pyrrolidine-2-carboxamide]
23.4	CC1(C)[C@@H]2[C@@H](C(=O)NCc3ccc(F)c(-c4cnc(C(F)(F)F)nc4)c3)N(S(=O)(=O)c3ccc(F)cc3)C[C@@H]21 [Example 78, (1S,4S,5R)-3-(4-fluorophenyl)sulfonyl-N-[[4-fluoro-3-[2-(trifluoromethyl)pyrimidin-5-yl]phenyl]methyl]-6,6-dimethyl-3-azabicyclo[3.1.0]hexane-4-carboxamide]
98.2	COC[C@H]1CC[C@@H](C(=O)NCc2cc(-c3cnc(C(F)(F)F)nc3)ncc2F)N1S(=O)(=O)c1ccc(F)cc1 [Example 80, (2S,5R)-N-((5-fluoro-2-(2-(trifluoromethyl)pyrimidin-5-yl)pyridin-4-yl)methyl)-1-((4-fluorophenyl)sulfonyl)-5-(methoxymethyl)pyrrolidine-2-carboxamide]
55.3	C[C@H]1[C@H](F)C[C@@H](C(=O)NCc2cc(N3CC(OC(F)(F)F)C3)nc(C3CC3)n2)N1S(=O)(=O)c1ccc(F)cc1 [Example 81, (2S,4R,5S)-N-[[2-cyclopropyl-6-[3-(trifluoromethoxy)azetidin-1-yl]pyrimidin-4-yl]methyl]-4-fluoro-1-(4-fluorophenyl)sulfonyl-5-methyl-pyrrolidine-2-carboxamide]
166	C[C@H]1[C@H](F)C[C@@H](C(=O)NCc2cc(OCCOC(F)(F)F)c(F)cn2)N1S(=O)(=O)c1ccc(F)cc1 [Example 82, (2S,4R,5S)-4-fluoro-1-(4-fluorophenyl)sulfonyl-N-[[5-fluoro-4-[2-(trifluoromethoxy)ethoxy]-2-pyridyl]methyl]-5-methyl-pyrrolidine-2-carboxamide]
147	C[C@H]1[C@H](F)C[C@@H](C(=O)NCc2cc(OCC3(C(F)(F)F)CC3)nc(C3CC3)n2)N1S(=O)(=O)c1ccc(F)cc1 [Example 83, (2S,4R,5S)-N-[[2-cyclopropyl-6-[[1-(trifluoromethyl)cyclopropyl]methoxy]pyrimidin-4-yl]methyl]-4-fluoro-1-(4-fluorophenyl)sulfonyl-5-methyl-pyrrolidine-2-carboxamide]
65.3	C[C@H]1[C@H](C#N)C[C@@H](C(=O)NCc2cc(-c3cnc(C(F)(F)F)nc3)ncc2F)N1S(=O)(=O)c1ccc(F)cc1 [Example 84, (2S,4R,5S)-4-cyano-1-(4-fluorophenyl)sulfonyl-N-[[5-fluoro-2-[2-(trifluoromethyl)pyrimidin-5-yl]-4-pyridyl]methyl]-5-methyl-pyrrolidine-2-carboxamide]
33.7	C[C@H]1[C@H](F)C[C@@H](C(=O)NCc2cc(-c3cnc(C(F)(F)F)s3)c(F)cn2)N1S(=O)(=O)c1ccc(F)cc1 [Example 85, (2S,4R,5S)-4-fluoro-1-(4-fluorophenyl)sulfonyl-N-[[5-fluoro-4-[2-(trifluoromethyl)thiazol-5-yl]-2-pyridyl]methyl]-5-methyl-pyrrolidine-2-carboxamide]
124	C[C@H]1[C@H](F)C[C@@H](C(=O)NCc2cc(-c3cnc(C(F)(F)F)nc3)c(C#N)cn2)N1S(=O)(=O)c1ccc(F)cc1 [Example 86, (2S,4R,5S)-N-[[5-cyano-4-[2-(trifluoromethyl)pyrimidin-5-yl]-2-pyridyl]methyl]-4-fluoro-1-(4-fluorophenyl)sulfonyl-5-methyl-pyrrolidine-2-carboxamide]
184	C[C@H]1[C@H](F)C[C@@H](C(=O)NCc2cc(-c3cnc(C(F)(F)F)cn3)ncn2)N1S(=O)(=O)c1ccc(F)cc1 [Example 87, (2S,4R,5S)-4-fluoro-1-(4-fluorophenyl)sulfonyl-5-methyl-N-[[6-[5-(trifluoromethyl)pyrazin-2-yl]pyrimidin-4-yl]methyl]pyrrolidine-2-carboxamide]
42.3	C[C@H]1[C@H](F)C[C@@H](C(=O)NCc2cc(C3CCN(CC(F)(F)F)CC3)ncc2F)N1S(=O)(=O)c1ccc(F)cc1 [Example 88, (2S,4R,5S)-4-fluoro-1-(4-fluorophenyl)sulfonyl-N-[[5-fluoro-2-[1-(2,2,2-trifluoroethyl)-4-piperidyl]-4-pyridyl]methyl]-5-methyl-pyrrolidine-2-carboxamide]
7.08	C[C@H]1[C@H](F)C[C@@H](C(=O)NCc2cc(-c3cnc(C(F)(F)F)nc3)ncc2F)N1S(=O)(=O)c1ccc(Br)cc1 [Example 89, (2S,4R,5S)-1-(4-bromophenyl)sulfonyl-4-fluoro-N-[[5-fluoro-2-[2-(trifluoromethyl)pyrimidin-5-yl]-4-pyridyl]methyl]-5-methyl-pyrrolidine-2-carboxamide]
2.5	C[C@H]1[C@H](F)C[C@@H](C(=O)NCc2cc(-c3cnc(C(F)(F)F)nc3)ncc2F)N1S(=O)(=O)c1ccc(Cl)cc1 [Example 90]
5.38	C[C@H]1[C@H](F)C[C@@H](C(=O)NCc2cc(-c3cnc(C(F)(F)F)s3)ncc2F)N1S(=O)(=O)c1ccc(F)cc1 [Example 93, (2S,4R,5S)-4-fluoro-1-(4-fluorophenyl)sulfonyl-N-[[5-fluoro-2-[2-(trifluoromethyl)thiazol-5-yl]-4-pyridyl]methyl]-5-methyl-pyrrolidine-2-carboxamide]
5.52	C[C@H]1[C@H](F)C[C@@H](C(=O)NCc2cc(C3CCN(CC(F)(F)C(F)(F)F)CC3)ncc2F)N1S(=O)(=O)c1ccc(F)cc1 [Example 94, (2S,4R,5S)-4-fluoro-N-[[5-fluoro-2-[1-(2,2,3,3,3-pentafluoropropyl)-4-piperidyl]-4-pyridyl]methyl]-1-(4-fluorophenyl)sulfonyl-5-methyl-pyrrolidine-2-carboxamide]
1.49	C[C@H]1[C@H](F)C[C@@H](C(=O)NCc2cc(-c3cnc(C(F)(F)F)nc3)ncc2F)N1S(=O)(=O)c1cc2ccccc2o1 [Example 95, (2S,4R,5S)-1-(benzofuran-2-ylsulfonyl)-4-fluoro-N-[[5-fluoro-2-[2-(trifluoromethyl)pyrimidin-5-yl]-4-pyridyl]methyl]-5-methyl-pyrrolidine-2-carboxamide]
22.5	C[C@H]1[C@H](F)C[C@@H](C(=O)NCc2cc(-c3ncc(C(F)(F)F)s3)c(F)cn2)N1S(=O)(=O)c1ccc(F)cc1 [Example 96, (2S,4R,5S)-4-fluoro-1-(4-fluorophenyl)sulfonyl-N-[[5-fluoro-4-[5-(trifluoromethyl)thiazol-2-yl]-2-pyridyl]methyl]-5-methyl-pyrrolidine-2-carboxamide]
6.06	C[C@H]1[C@H](F)C[C@@H](C(=O)NCc2cc(-c3cnc(C(F)(F)F)nc3)cc(F)c2F)N1S(=O)(=O)c1ccc(F)cc1 [Example 97, (2S,4R,5S)-N-[[2-1,3-difluoro-5-[2-(trifluoromethyl)pyrimidin-5-yl]phenyl]methyl]-4-fluoro-1-(4-fluorophenyl)sulfonyl-5-methyl-pyrrolidine-2-carboxamide]
5.61	C[C@H]1[C@H](F)C[C@@H](C(=O)NCc2cc(-c3cnc(C(F)(F)F)nc3)ncc2F)N1S(=O)(=O)c1cc2ccccc2s1 [Example 98, (2S,4R,5S)-1-(benzothiophen-2-ylsulfonyl)-4-fluoro-N-[[5-fluoro-2-[2-(trifluoromethyl)pyrimidin-5-yl]-4-pyridyl]methyl]-5-methyl-pyrrolidine-2-carboxamide]
